Tests used:
DLD-1 = experiment: MTS assay, DLD-1 cells; format: cell-based; details: 72 hours; for DLD-1, MTS cell kill % inhibition: 10 μM; for inhibition at 10 µM: Homo sapiens, read-out: DLD-1, MTS cell kill % inhibition
Procedure: (§1) Cells were maintained at 37° C., 5% CO2 in DMEM media supplemented with 1% fetal bovine serum, penicillin/streptomycin and fungizone (Invitrogen). Cells were seeded into 96-well tissue culture plates at 3000 per well and cultured at 37° C. for 18 hours. Test compounds were dissolved and diluted to 300× in DMSO then diluted 1:40 in DMEM. Cells were incubated with test compounds for 72 hours followed by incubation with tetrazolium compound (3-(4,5-dimethylthiazol-2-yl)-5-(3-carboxymethoxyphenyl)-2-(4-sulfophenyl)-2H-tetrazolium, inner salt; MTS) and the electron coupling reagent, phenazine methosulfate (PMS) for 4 hours. […] The ability of compounds to inhibit cell growth in this assay is correlated with the reduction of dehydrogenase enzyme activity found in metabolically active cells. The measurement of the absorbance of the formazan was assessed using an ENVISION™ (Perkin Elmer) microplate reader at 492 nm. The calculated IC50 value is the concentration of the test compound that causes a 50% decrease in the absorbance.

KATO III = experiment: MTS assay, KATO III cells; format: cell-based; details: 72 hours; for KATO III, MTS cell kill % inhibition: 10 μM; for inhibition at 10 µM: Homo sapiens, read-out: KATO III, MTS cell kill % inhibition
Procedure: as §1

MDA-MB-231 = experiment: MTS assay, MDA-MB-231 cells; format: cell-based; details: 72 hours; for MDA-MB-231, MTS cell kill % inhibition: 10 μM; for inhibition at 10 µM: Homo sapiens, read-out: MDA-MB-231, MTS cell kill % inhibition
Procedure: as §1

NCI-H1299 = experiment: MTS assay, NCI-H1299 cells; format: cell-based; details: 72 hours; for NCI-H1299, MTS cell kill % inhibition: 10 μM; for inhibition at 10 µM: Homo sapiens, read-out: NCI-H1299, MTS cell kill % inhibition
Procedure: as §1

IGF-1R = IGF-1R (Homo sapiens, UniProt P08069); experiment: IGFR1 activity assay (ELISA); format: biochemical; details: for inhibition at 30 µM: read-out: IGF-1R, PCT INH (30 μM), ELISA
Chain of IGF-1R (P08069 31-1367): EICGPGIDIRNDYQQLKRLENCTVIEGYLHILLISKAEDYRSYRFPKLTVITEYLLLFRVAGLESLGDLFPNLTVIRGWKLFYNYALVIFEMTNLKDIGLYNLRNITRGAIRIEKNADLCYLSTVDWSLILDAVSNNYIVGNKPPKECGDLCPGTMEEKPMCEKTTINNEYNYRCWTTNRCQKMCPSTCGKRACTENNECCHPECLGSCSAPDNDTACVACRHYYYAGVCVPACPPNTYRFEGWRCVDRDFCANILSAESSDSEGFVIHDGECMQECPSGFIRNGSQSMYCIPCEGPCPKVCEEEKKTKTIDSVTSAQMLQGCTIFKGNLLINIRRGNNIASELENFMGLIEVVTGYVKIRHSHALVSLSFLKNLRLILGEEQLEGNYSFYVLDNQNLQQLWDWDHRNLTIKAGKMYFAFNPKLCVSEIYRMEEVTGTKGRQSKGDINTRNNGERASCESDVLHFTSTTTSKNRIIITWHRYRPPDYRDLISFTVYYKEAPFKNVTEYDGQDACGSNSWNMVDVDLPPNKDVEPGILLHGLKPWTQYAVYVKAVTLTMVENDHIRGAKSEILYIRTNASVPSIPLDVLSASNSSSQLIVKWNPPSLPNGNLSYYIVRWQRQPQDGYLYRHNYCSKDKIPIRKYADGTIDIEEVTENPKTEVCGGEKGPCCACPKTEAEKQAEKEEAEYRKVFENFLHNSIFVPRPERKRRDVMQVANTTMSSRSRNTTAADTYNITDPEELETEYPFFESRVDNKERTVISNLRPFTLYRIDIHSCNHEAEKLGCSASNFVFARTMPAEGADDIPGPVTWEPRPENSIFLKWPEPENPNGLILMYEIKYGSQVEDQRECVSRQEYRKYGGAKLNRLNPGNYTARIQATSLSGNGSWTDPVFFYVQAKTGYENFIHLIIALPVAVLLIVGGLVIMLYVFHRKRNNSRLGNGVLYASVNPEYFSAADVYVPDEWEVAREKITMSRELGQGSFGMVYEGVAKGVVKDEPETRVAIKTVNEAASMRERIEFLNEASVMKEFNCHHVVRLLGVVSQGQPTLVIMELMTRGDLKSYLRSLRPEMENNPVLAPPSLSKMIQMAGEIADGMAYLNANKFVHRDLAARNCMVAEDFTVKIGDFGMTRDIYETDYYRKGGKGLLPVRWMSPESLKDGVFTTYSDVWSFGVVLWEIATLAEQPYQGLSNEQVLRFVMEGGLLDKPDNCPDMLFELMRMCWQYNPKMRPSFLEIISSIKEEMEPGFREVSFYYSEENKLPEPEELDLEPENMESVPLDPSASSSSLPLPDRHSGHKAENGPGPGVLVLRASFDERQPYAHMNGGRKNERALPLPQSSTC
Procedure: The disclosed compounds were assayed for their ability to inhibit insulin-like growth factor receptor-1 (IGFR1). Nunc Maxisorb plates were coated with streptavidin by overnight incubation with 100 μL per well of 1 μg/ml Streptavidin in DPBS. Prior to the start of the experiment, the plates were washed with TBST (3×200 μL) and blocked for at least 1 hour by adding 150 μL of 5% BSA/TBST. The plates were washed with TBST (3×200 μL/well) and left to dry immediately before the capture step.
The disclosed test articles and controls (Staurosporine) were prepared using the following assay buffer at 3× desired final concentration (50 mM Tris-HCl, 0.02 mg/ml BSA, 10 mM MgCl2, 0.1 mM Na3VO4, 1 mM EGTA, 12.5 μM ATP, 0.01% NP-40, 1 mM DTT in 10% glycerol/water). 20 μL of the test compounds (or control), 20 μL IGF1R (0.33 ng/μL final concentration), and 20 μL of Pyk-2 (0.05 ng/μL final concentration) were rapidly added to the reaction plate. The plate was incubated at room temperature for one hour.
50 μL was transferred from the reaction plate to the streptavidin coated plate. The capture plate was incubated at room temperature for 30 minutes, then washed with TBST three times. 100 μL/well of Cell Signaling anti-phospho tyrosine was added to the capture plate at a dilution of 1:3000 in 2% BSA/TBST. The plate was incubated for one hour at room temperature then washed 6× with TBST. 100 μL/well of alkaline phosphatase tagged goat anti mouse antibody was added to the capture plate at a dilution of 1:4000 in 2% BSA/TBST. The plate was incubated for one hour at room temperature then washed with TBST six times.
The fluorescent readout is initiated by the addition of 100 μL/well of Attophos reagent (6 mg/10 mL). The reading is done on the Perkin Elmer Envision system.

| inhibition at 30 µM (IGF-1R) | Compound | DLD-1, MTS cell kill % inhibition (DLD-1) | KATO III, MTS cell kill % inhibition (KATO III) | MDA-MB-231, MTS cell kill % inhibition (MDA-MB-231) | NCI-H1299, MTS cell kill % inhibition (NCI-H1299) | IGF-1R, PCT INH (30 μM), ELISA (IGF-1R) | inhibition at 10 µM (DLD-1) | inhibition at 10 µM (KATO III) | inhibition at 10 µM (MDA-MB-231) | inhibition at 10 µM (NCI-H1299) |
| --- | --- | --- | --- | --- | --- | --- | --- | --- | --- | --- |
|  | 3-[3-biphenyl-4-yl-5-({[3- (dimethylamino)propyl](methyl) amino}methyl)-1H-indol-2- yl]pyridin-2(1H)-one [Compound 53] | A (A = 80-100% inhibition) | A (A = 80-100% inhibition) | A (A = 80-100% inhibition) | A (A = 80-100% inhibition) | C (C = <50% inhibition) |  |  |  |  |
|  | 3-biphenyl-4-yl-N-(2- chlorophenyl)-2-(2-oxo-1,2- dihydropyridin-3-yl)-1H- indole-5-carboxamide [Compound 35] | C (C = <50% inhibition) | C (C = <50% inhibition) | C (C = <50% inhibition) | C (C = <50% inhibition) | C (C = <50% inhibition) |  |  |  |  |
| 80 to 100% | O=C(NCc1ccc(F)cc1F)c1ccc2[nH]c(-c3ccc[nH]c3=O)c(-c3ccccc3)c2c1 [Compound 10, N-(2,4-difluorobenzyl)-2-(2-oxo-1,2-dihydropyridin-3-yl)-3-phenyl-1H-indole-5-carboxamide] |  |  |  |  |  | 80 to 100% | 80 to 100% | < 50% | 80 to 100% |
| 80 to 100% | COCC(C)NC(=O)c1ccc2[nH]c(-c3ccc[nH]c3=O)c(-c3ccccc3)c2c1 (centres unmarked) [Compound 11, N-(2-methoxy-1-methylethyl)-2-(2-oxo-1,2-dihydropyridin-3-yl)-3-phenyl-1H-indole-5-carboxamide] |  |  |  |  |  | 50 to 79% | 80 to 100% | < 50% | 50 to 79% |
| 80 to 100% | O=C(c1ccc2[nH]c(-c3ccc[nH]c3=O)c(-c3ccccc3)c2c1)N1CCN(c2ccccc2F)CC1 [Compound 14, 3-(5-{[4-(2-fluorophenyl)piperazin-1-yl]carbonyl) -3-phenyl-1H-indol-2-yl)pyridin-2(1H)-one] |  |  |  |  |  | 50 to 79% | 80 to 100% |  | 50 to 79% |
| < 50% | O=C(Nc1ccc(F)cc1Cl)c1ccc2[nH]c(-c3ccc[nH]c3=O)c(-c3ccccc3)c2c1 [Compound 18, N-(2-chloro-4-fluorophenyl)-2-(2-oxo-1,2-dihydropyridin-3-yl)-3-phenyl-1H-indole-5-carboxamide] |  |  |  |  |  | 50 to 79% | 50 to 79% | < 50% | 80 to 100% |
| 80 to 100% | COc1cccc(CCNC(=O)c2ccc3[nH]c(-c4ccc[nH]c4=O)c(-c4ccccc4)c3c2)c1OC [Compound 19, N-[2-(2,3-dimethoxyphenyl)ethyl]-2-(2-oxo-1,2-dihydropyridin-3-yl)-3-phenyl-1H-indole-5-carboxamide] |  |  |  |  |  | 80 to 100% | 80 to 100% | 80 to 100% | 80 to 100% |
| 80 to 100% | CN(C(=O)c1ccc2[nH]c(-c3ccc[nH]c3=O)c(-c3ccccc3)c2c1)c1ccc(F)cc1 [Compound 20, N-(4-fluorophenyl)-N-methyl-2-(2-oxo-1,2-dihydropyridin-3-yl)-3-phenyl-1H-indole-5-carboxamide] |  |  |  |  |  | 80 to 100% | 80 to 100% | 80 to 100% | 80 to 100% |
| < 50% | COc1cc2c(cc1OC)CN(C(=O)c1ccc3[nH]c(-c4ccc[nH]c4=O)c(-c4ccccc4)c3c1)CC2 [Compound 21, 3-{5-[(6,7-dimethoxy-3,4-dihydroisoquinolin-2(1H)-yl)carbonyl]-3-phenyl-1H-indol-2-yl}pyridin-2(1H)-one] |  |  |  |  |  | 50 to 79% | 80 to 100% |  | 80 to 100% |
| 80 to 100% | CN(CCc1ccccc1)C(=O)c1ccc2[nH]c(-c3ccc[nH]c3=O)c(-c3ccccc3)c2c1 [Compound 23, N-methyl-2-(2-oxo-1,2-dihydropyridin-3-yl)-3-phenyl-N-(2-phenylethyl)-1H-indole-5-carboxamide] |  |  |  |  |  | 80 to 100% | 80 to 100% | 80 to 100% | 80 to 100% |
| 80 to 100% | CCOC(=O)N1CCN(C(=O)c2ccc3[nH]c(-c4ccc[nH]c4=O)c(-c4ccccc4)c3c2)CC1 [Compound 24, ethyl 4-{[2-(2-oxo-1,2-dihydropyridin-3-yl)-3-phenyl-1H-indol-5-yl]carbonyl}piperazine-1-carboxylate] |  |  |  |  |  | 50 to 79% | 80 to 100% |  | 50 to 79% |
| 80 to 100% | O=C(c1ccc2[nH]c(-c3ccc[nH]c3=O)c(-c3ccccc3)c2c1)N1CCN(c2cnccn2)CC1 [Compound 25, 3-{3-phenyl-5-[(4-pyrazin-2-ylpiperazin-1-yl)carbonyl]-1H-indol-2-yl}pyridin-2(1H)-one] |  |  |  |  |  | 50 to 79% | 80 to 100% |  | 50 to 79% |
| 80 to 100% | O=C(NC1CCC1)c1ccc2[nH]c(-c3ccc[nH]c3=O)c(-c3ccccc3)c2c1 [Compound 26, N-cyclobutyl-2-(2-oxo-1,2-dihydropyridin-3-yl)-3-phenyl-1H-indole-5-carboxamide] |  |  |  |  |  | 80 to 100% | 80 to 100% | 80 to 100% | 80 to 100% |
| 80 to 100% | O=C(NCCOc1ccccc1)c1ccc2[nH]c(-c3ccc[nH]c3=O)c(-c3ccccc3)c2c1 [Compound 31, 2-(2-oxo-1,2-dihydropyridin-3-yl)-N-(2-phenoxyethyl)-3-phenyl-1H-indole-5-carboxamide] |  |  |  |  |  | 50 to 79% | 80 to 100% | < 50% | 80 to 100% |
| 80 to 100% | COc1ccc(CNC(=O)c2ccc3[nH]c(-c4ccc[nH]c4=O)c(-c4ccccc4)c3c2)cc1OC [Compound 32, N-(3,4-dimethoxybenzyl)-2-(2-oxo-1,2-dihydropyridin-3-yl)-3-phenyl-1H-indole-5-carboxamide] |  |  |  |  |  | 50 to 79% | 80 to 100% | < 50% | 80 to 100% |
|  | O=C(NCc1ccc(F)cc1F)c1ccc2[nH]c(-c3ccc[nH]c3=O)c(-c3ccc(-c4ccccc4)cc3)c2c1 [Compound 34, 3-biphenyl-4-yl-N-(2,4-difluorobenzyl)-2-(2-oxo-1,2-dihydropyridin-3-yl)-1H-indole-5-carboxamide] |  |  |  |  |  | 50 to 79% | 80 to 100% | 50 to 79% | 50 to 79% |
|  | CN(C)CCCNC(=O)c1ccc2[nH]c(-c3ccc[nH]c3=O)c(-c3ccc(-c4ccccc4)cc3)c2c1 [Compound 49, 3-biphenyl-4-yl-N-[3-(dimethylamino)propyl]-2-(2-oxo-1,2-dihydropyridin-3-yl)-1H-indole-5-carboxamide] |  |  |  |  |  | 80 to 100% | 80 to 100% | 80 to 100% | 80 to 100% |
| 80 to 100% | COc1ccc(-c2c(-c3ccc[nH]c3=O)[nH]c3ccc(C(=O)NCCCN4CCOCC4)cc23)c(OC)c1 [Compound 81, 3-(2,4-dimethoxyphenyl)-N-(3-morpholin-4-ylpropyl)-2-(2-oxo-1,2-dihydropyridin-3-yl)-1H-indole-5-carboxamide] |  |  |  |  |  | < 50% | < 50% |  | < 50% |
